Consider 7 compounds from US4675400A, “Bifunctional derivatives of 4-desacetyl indole-dihydroindole alkaloids” (Eli Lilly and Company, priority 1985, dated 1987).

A short description of one data set: pKa (66% DMF). Format: physicochemical.
Another data set has as its system 6C3HED lymphosarcoma. The data set is described as follows: activity against transplanted tumor 6C3HED lymphosarcoma in mice. The data set is classed as in vivo. The following applies: intravenous, day one. As to the method: Certain of the above compounds have also shown activity against a transplanted tumor, 6C3HED lymphosarcoma, in mice. Information as to this activity is summarized in Table 2 in which column 1 gives the name of the compound, column 2, the dose level in mg./kg. and column 3 the percent tumor inhabitation. All compounds were administered on day one by the intravenous route.

Data set [1] relates to human leukemic cells (CCRF-CEM cell line). The experiment in a line: C.C.R.F.-C.E.M. Cytotoxicity Assay, growth inhibition of human leukemic cells. The data set is classed as cell-based. The following applies: read-out: IC50 (concentration giving 50% growth inhibition). The source says:
In the Table, column 1 gives the name of the compound and column 2, the IC50 (concentration giving 50% growth inhibition) in mcg/ml.

A further data set has as its system growing tumor cells. The data set is described as follows: metaphase arrest, block of growing tumor cells in mitosis. The data set is classed as cell-based. The following applies: standard procedures; read-out: concentration at which compound blocked growing tumor cells in mitosis (metaphase arrest). The method, then: The compounds of this invention in which Z is OH, NH2, NHNH2, or O--C1-3 alkyl have utility as anti-tumor compounds acti transplanted tumors in mice, as mitotic inhibitors and as cytotoxic agents. As evidence of such utility, the ability of N^2 -succinoyl 4-desacetyl VLB 3-carboxhydrazide methyl ester sulfate to cause metaphase arrest was measured by standard procedures.

For data set [2], the system named is vincristine-resistant leukemias. The note with it: marketed oncolytic agent; cited from earlier work.

Values after ≈ are worked out from the molar mass of the structure shown. Structures can show the parent of a compound that is named as a salt.

With `CC[C@]1(O)C[C@@H]2CN(CCc3c([nH]c4ccccc34)[C@@](C(=O)OC)(c3cc4c(cc3OC)N(C)[C@H]3[C@@](O)(C(=O)NNC(=O)CCC(=O)O)[C@H](O)[C@]5(CC)C=CCN6CC[C@]43[C@@H]65)C2)C1` [Example 1, N^2 -Succinoyl-4-desacetyl VLB 3-carboxhydrazide], in the data set “pKa (66% DMF)”, the pKa – broadly, the pH at which an ionisable group is half protonated – came to 5.1.
In the data set “pKa (66% DMF)”, `CC[C@]1(O)C[C@@H]2CN(CCc3c([nH]c4ccccc34)[C@@](C(=O)OC)(c3cc4c(cc3OC)N(C)[C@H]3[C@@](O)(C(=O)NNC(=O)CCCC(=O)O)[C@H](O)[C@]5(CC)C=CCN6CC[C@]43[C@@H]65)C2)C1` [Example 8, N^2 -Glutaroyl 4-desacetyl VLB 3-carboxhydrazide] had a pKa of 4.8.
Regarding `CC[C@]1(O)C[C@@H]2CN(CCc3c([nH]c4ccccc34)[C@@](C(=O)OC)(c3cc4c(cc3OC)N(C)[C@H]3[C@@](O)(C(=O)NNC(=O)CCC(=O)O)[C@H](O)[C@]5(CC)C=CCN6CC[C@]43[C@@H]65)C2)C1` [N^2 --Succinoyl 4-desacetyl VLB 3-carboxhydrazide sulfate], the “% Tumor Inhibition” value was found to be 13% in the data set with 6C3HED lymphosarcoma (0.625 mg/kg); 5% with 6C3HED lymphosarcoma (1.25 mg/kg); 5% in the data set with 6C3HED lymphosarcoma (2.5 mg/kg); 33% with 6C3HED lymphosarcoma (5 mg/kg); 77% in the data set with 6C3HED lymphosarcoma (10 mg/kg); 100% in the data set on 6C3HED lymphosarcoma (20 mg/kg). Moreover, the “% Tumor Inhibition” value with 6C3HED lymphosarcoma (40 mg/kg) is 100%.
On to `CC[C@]1(O)C[C@@H]2CN(CCc3c([nH]c4ccccc34)[C@@](C(=O)OC)(c3cc4c(cc3OC)N(C)[C@H]3[C@@](O)(C(=O)NNC(=O)CCCCC(=O)OC)[C@H](O)[C@]5(CC)C=CCN6CC[C@]43[C@@H]65)C2)C1` [N^2-adipoyl-4-desacetyl VLB 3-carboxyhydrazide methylester], for which, in data set [1], the IC50 worked out at 0.4 µg/mL (≈ 0.439 µM).
In the case of `CC[C@]1(O)C[C@@H]2CN(CCc3c([nH]c4ccccc34)[C@@](C(=O)OC)(c3cc4c(cc3OC)N(C)[C@H]3[C@@](O)(C(=O)NNC(=O)CCCC(=O)O)[C@H](O)[C@]5(CC)C=CCN6CC[C@]43[C@@H]65)C2)C1` [N^2-glutaroyl 4-desacetyl VLB 3-carboxhydrazide sulfate], in data set [1], the IC50 is 0.1 µg/mL.
As for `CC[C@]1(O)C[C@@H]2CN(CCc3c([nH]c4ccccc34)[C@@](C(=O)OC)(c3cc4c(cc3OC)N(C)[C@H]3[C@@](O)(C(=O)NNC(=O)CCC(=O)OC)[C@H](O)[C@]5(CC)C=CCN6CC[C@]43[C@@H]65)C2)C1` [N^2-succinoyl 4-desacetyl VLB 3-carboxhydrazide methyl ester], in the data set on growing tumor cells, the minimal effective concentration came out at 0.2 µg/mL. Moreover, the “% Tumor Inhibition” value in the data set with 6C3HED lymphosarcoma (1 mg/kg) and with 6C3HED lymphosarcoma (.5 mg/kg) was 100% in each case. Also, the “% Tumor Inhibition (toxic dose)” value in the data set on 6C3HED lymphosarcoma (2 mg/kg) and with 6C3HED lymphosarcoma (4 mg/kg) was “Toxic” in each case.
Turning to `CC[C@]1(O)C[C@@H]2CN(CCc3c([nH]c4ccccc34)[C@@](C(=O)OC)(c3cc4c(cc3OC)N(C)[C@H]3[C@@](O)(C(N)=O)[C@H](O)[C@]5(CC)C=CCN6CC[C@]43[C@@H]65)C2)C1` [vindesine, 4-desacetyl VLB 3-carboxamide], the “effectiveness in treating leukemias and neoplasms” value in data set [2] is on record as “effective in treating some vincristine-resistant leukemias in addition to many common neoplasms including germ-cell tumors”.
